Reference: patent US5488060A, “Substituted thiadiazoles, compositions containing them and their use as antimicrobial and marine antifouling agents” (The Dow Chemical Company, priority 1994, dated 1996)
Converted amounts (≈) assume the structure as drawn. Where two headings read alike, the source gives them in different places.

Assays:
Format in all cases: cell-based
[1] = tested on: Penicillium chrysogenum (Pc); assay: Minimum inhibitory concentration (MIC) in malt yeast agar, Penicillium chrysogenum
Procedure, shortened: (§1)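 Plates of pH 5.5 malt yeast agar carried test compound dispersed from a one percent acetone–water solution, final 500 to zero ppm. After diluted slant-culture suspensions were applied, plates were kept at 30 °C and examined at 72 h for fungi, 48 h for yeast.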

Aspergillus niger (An) = assay: Minimum inhibitory concentration (MIC) in malt yeast agar, Aspergillus niger
Procedure, shortened: as §1

[2] = tested on: Aureobasidium pullulan (Ap); assay: Minimum inhibitory concentration (MIC) in malt yeast agar, Aureobasidium pullulan
Procedure, shortened: as §1

Candida albicans (Ca) = assay: Minimum inhibitory concentration (MIC) in malt yeast agar, Candida albicans
Procedure, shortened: as §1

[3] = tested on: Saccharomyces cerevisiae (Sc); assay: Minimum inhibitory concentration (MIC) in malt yeast agar, Saccharomyces cerevisiae; details: pH 5.5, malt yeast agar, 30° C., 48 hours for yeast, read-out: Minimum Inhibitory Concentration, SC
Procedure, shortened: as §1

[4] = tested on: Enterobacter aerogenes (Ea); assay: Minimum inhibitory concentration (MIC) in nutrient agar, Enterobacter aerogenes; details: Klebsiella aerogenes
Procedure, shortened: (§2)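 Agar dilution; nutrient agar at pH 6.8 (neutral) and pH 8.2 (alkaline, tricine-buffered). Compound from 1% acetone/water stock, final 500–1.0 ppm. Inoculum 10^8 CFU/mL via Steer's replicator. 30° C, 48 h; growth/no growth read.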

[5] = tested on: Salmonella choleraesuis (Se); assay: Minimum inhibitory concentration (MIC) in nutrient agar, Salmonella choleraesuis; details: Salmonella enterica
Procedure, shortened: as §2

Fusarium oxysporum (Fo) = assay: Minimum inhibitory concentration (MIC) in malt yeast agar, Fusarium oxysporum; details: pH 5.5; malt yeast agar, 30° C., 72 hours for fungi; read-out: Minimum Inhibitory Concentration, Fo
Procedure, shortened: as §1

[6] = tested on: Pseudomonas aeruginosa (PRD-10); assay: Minimum inhibitory concentration (MIC) in nutrient agar, Pseudomonas aeruginosa PRD-10; details: 48 h
Procedure, shortened: as §2

[7] = tested on: Pseudomonas aeruginosa (Pa); assay: Minimum inhibitory concentration (MIC) in nutrient agar, Pseudomonas aeruginosa; details: 30° C., 48 hours, read-out: Minimum Inhibitory Concentration, Pa
Procedure, shortened: as §2

Proteus vulgaris (Pv) = assay: Minimum inhibitory concentration (MIC) in nutrient agar, Proteus vulgaris
Procedure, shortened: as §2

[8] = tested on: Klebsiella pneumoniae (Kp); assay: Minimum inhibitory concentration (MIC) in nutrient agar, Klebsiella pneumoniae
Procedure, shortened: as §2

Trichoderma viride (Tv) = assay: Minimum inhibitory concentration (MIC) in malt yeast agar, Trichoderma viride
Procedure, shortened: as §1

Bacillus subtilis (Bs) = assay: Minimum inhibitory concentration (MIC) in nutrient agar, Bacillus subtilis
Procedure, shortened: as §2

Escherichia coli (Ec) = assay: Minimum inhibitory concentration (MIC) in nutrient agar, Escherichia coli; details: 48 h
Procedure, shortened: as §2

[9] = tested on: Staphylococcus aureus (Sa); assay: Minimum inhibitory concentration (MIC) in nutrient agar, Staphylococcus aureus
Procedure, shortened: as §2

[10] = 72 h, pH 5.5, read-out: Minimum Inhibitory Concentration, PC
[11] = pH 5.5, malt yeast agar, 30° C., 72 hours for fungi, read-out: Minimum Inhibitory Concentration, An
[12] = pH 5.5, malt yeast agar, 30° C., read-out: Minimum Inhibitory Concentration, Ap
[13] = 48 h, pH 5.5, read-out: Minimum Inhibitory Concentration, Ca
[14] = 48 h, pH 8.2, read-out: Minimum Inhibitory Concentration, Ea
[15] = 48 h, pH 8.2, read-out: Minimum Inhibitory Concentration, SC
[16] = pH 6.8, read-out: Minimum Inhibitory Concentration, PRD
[17] = pH 8.2, read-out: Minimum Inhibitory Concentration, PRD
[18] = 48 h, pH 8.2, read-out: Minimum Inhibitory Concentration, Pv
[19] = 48 h, pH 8.2, read-out: Minimum Inhibitory Concentration, Kp
[20] = pH 6.8, nutrient agar, 30° C., 48 hours, read-out: Minimum Inhibitory Concentration, Kp
[21] = pH 6.8, nutrient agar, 30° C., 48 hours, read-out: Minimum Inhibitory Concentration, Bs
[22] = pH 8.2, nutrient agar, 30° C., 48 hours, read-out: Minimum Inhibitory Concentration, Bs
[23] = pH 6.8, read-out: Minimum Inhibitory Concentration, Ec
[24] = pH 8.2, read-out: Minimum Inhibitory Concentration, Ec
[25] = 48 h, pH 8.2, read-out: Minimum Inhibitory Concentration, Sa
[26] = pH 6.8, nutrient agar, 30° C., 48 hours, read-out: Minimum Inhibitory Concentration, Sa
[27] = 48 h, pH 6.8, read-out: Minimum Inhibitory Concentration, Ea
[28] = 48 h, pH 6.8, read-out: Minimum Inhibitory Concentration, SC
[29] = 48 h, pH 6.8, read-out: Minimum Inhibitory Concentration, Pv
[30] = pH 5.5, malt yeast agar, 30° C., 72 hours for fungi, read-out: Minimum Inhibitory Concentration, Tv

N#CSc1nsnc1-c1cccs1 [Example XIV, 4-(2-Thiophene)-3-thiocyanato-1,2,5-thiadiazole]
MIC [1, 10]: < 10 µg/mL
MIC (Aspergillus niger (An); [11]): < 10 µg/mL
MIC [2, 12]: < 10 µg/mL
MIC (Candida albicans (Ca); [13]): 25 µg/mL (≈ 111 µM)
MIC [3]: < 10 µg/mL
MIC [4, 14]: 500 µg/mL (≈ 2220 µM)
MIC ([4]; pH 6.8, nutrient agar, 30° C., 48 hours, read-out: Minimum Inhibitory Concentration, Ea): 100 µg/mL (≈ 444 µM)
MIC [5, 15]: 500 µg/mL (≈ 2220 µM)
MIC ([5]; pH 6.8, nutrient agar, 30° C., 48 hours, read-out: Minimum Inhibitory Concentration, SC): 50 µg/mL (≈ 222 µM)
MIC (Fusarium oxysporum (Fo)): < 10 µg/mL
MIC [6, 16]: 500 µg/mL (≈ 2220 µM)
MIC [6, 17]: 500 µg/mL (≈ 2220 µM)
MIC ([7]; pH 6.8, nutrient agar): 500 µg/mL (≈ 2220 µM)
MIC ([7]; pH 8.2, nutrient agar): 500 µg/mL (≈ 2220 µM)
MIC (Proteus vulgaris (Pv); [18]): 500 µg/mL (≈ 2220 µM)
MIC (Proteus vulgaris (Pv); pH 6.8, nutrient agar, 30° C., 48 hours, read-out: Minimum Inhibitory Concentration, Pv): 50 µg/mL (≈ 222 µM)
MIC [8, 19]: 500 µg/mL (≈ 2220 µM)
MIC [8, 20]: 25 µg/mL (≈ 111 µM)
MIC (Trichoderma viride (Tv); 72 h, pH 5.5, read-out: Minimum Inhibitory Concentration, Tv): < 10 µg/mL
MIC (Bacillus subtilis (Bs); [21]): 25 µg/mL (≈ 111 µM)
MIC (Bacillus subtilis (Bs); [22]): 100 µg/mL (≈ 444 µM)
MIC (Escherichia coli (Ec); [23]): 50 µg/mL (≈ 222 µM)
MIC (Escherichia coli (Ec); [24]): 500 µg/mL (≈ 2220 µM)
MIC [9, 25]: 500 µg/mL (≈ 2220 µM)
MIC [9, 26]: 25 µg/mL (≈ 111 µM)

N#CSCSc1nsnc1-c1cccc(Cl)c1 [Example XIX, 4-(3-Chlorophenyl)-3-thiocyanatomethylthio-1,2,5-thiadiazole]
MIC [1, 10]: 2.5 µg/mL (≈ 8.34 µM)
MIC (Aspergillus niger (An); [11]): 5 µg/mL (≈ 16.7 µM)
MIC ([2]; pH 5.5, read-out: Minimum Inhibitory Concentration, Ap): 2.5 µg/mL (≈ 8.34 µM)
MIC (Candida albicans (Ca); [13]): 25 µg/mL (≈ 83.4 µM)
MIC [3]: 1 µg/mL (≈ 3.34 µM)
MIC [4, 27]: 500 µg/mL (≈ 1670 µM)
MIC [4, 14]: > 500 µg/mL
MIC [5, 28]: 500 µg/mL (≈ 1670 µM)
MIC [5, 15]: > 500 µg/mL
MIC (Fusarium oxysporum (Fo)): 500 µg/mL (≈ 1670 µM)
MIC [6, 16]: 500 µg/mL (≈ 1670 µM)
MIC [6, 17]: > 500 µg/mL
MIC ([7]; pH 6.8, nutrient agar): 500 µg/mL (≈ 1670 µM)
MIC ([7]; pH 8.2, nutrient agar): > 500 µg/mL
MIC (Proteus vulgaris (Pv); [29]): 500 µg/mL (≈ 1670 µM)
MIC (Proteus vulgaris (Pv); [18]): > 500 µg/mL
MIC [8, 19]: > 500 µg/mL
MIC [8, 20]: 500 µg/mL (≈ 1670 µM)
MIC (Trichoderma viride (Tv); [30]): > 500 µg/mL
MIC (Bacillus subtilis (Bs); [21]): 9 µg/mL (≈ 30 µM)
MIC (Bacillus subtilis (Bs); [22]): 9 µg/mL (≈ 30 µM)
MIC (Escherichia coli (Ec); [23]): 500 µg/mL (≈ 1670 µM)
MIC (Escherichia coli (Ec); [24]): 500 µg/mL (≈ 1670 µM)
MIC [9, 26]: 9 µg/mL (≈ 30 µM)
MIC ([9]; pH 8.2, nutrient agar, 30° C., 48 hours, read-out: Minimum Inhibitory Concentration, Sa): 9 µg/mL (≈ 30 µM)

N#CSCSc1nsnc1-c1ccc(Br)cc1 [Example XVII, 4-(4-Bromophenyl)-3-thiocyanatomethylthio-1,2,5-thiadiazole]
MIC ([1]; pH 5.5, malt yeast agar, 30° C., 72 hours for fungi, read-out: Minimum Inhibitory Concentration, PC): 9 µg/mL (≈ 26.1 µM)
MIC (Aspergillus niger (An); 72 h, pH 5.5, read-out: Minimum Inhibitory Concentration, An): 25 µg/mL (≈ 72.6 µM)
MIC [2, 12]: 9 µg/mL (≈ 26.1 µM)
MIC (Candida albicans (Ca); pH 5.5, malt yeast agar, 30° C., 48 hours for yeast, read-out: Minimum Inhibitory Concentration, Ca): 500 µg/mL (≈ 1450 µM)
MIC [3]: 9 µg/mL (≈ 26.1 µM)
MIC [4, 27]: > 500 µg/mL
MIC [4, 14]: > 500 µg/mL
MIC [5, 28]: > 500 µg/mL
MIC [5, 15]: > 500 µg/mL
MIC (Fusarium oxysporum (Fo)): 250 µg/mL (≈ 726 µM)
MIC [6, 16]: > 500 µg/mL
MIC [6, 17]: > 500 µg/mL
MIC ([7]; pH 6.8, nutrient agar): > 500 µg/mL
MIC ([7]; pH 8.2, nutrient agar): > 500 µg/mL
MIC (Proteus vulgaris (Pv); [29]): > 500 µg/mL
MIC (Proteus vulgaris (Pv); [18]): > 500 µg/mL
MIC [8, 19]: > 500 µg/mL
MIC [8, 20]: > 500 µg/mL
MIC (Trichoderma viride (Tv); [30]): 500 µg/mL (≈ 1450 µM)
MIC (Bacillus subtilis (Bs); 48 h, pH 8.2, read-out: Minimum Inhibitory Concentration, Bs): 25 µg/mL (≈ 72.6 µM)
MIC (Bacillus subtilis (Bs); [21]): 9 µg/mL (≈ 26.1 µM)
MIC (Escherichia coli (Ec); [23]): > 500 µg/mL
MIC (Escherichia coli (Ec); [24]): > 500 µg/mL
MIC [9, 25]: > 500 µg/mL
MIC [9, 26]: > 500 µg/mL
